# Measured values as given in US20120094311A1, “GENE AND PROTEIN EXPRESSION PROFILES ASSOCIATED WITH THE THERAPEUTIC EFFICACY OF EGFR-TK INHIBITORS” (priority 2007, published 2012).
# System: tumor cells derived from NSCLC tumors of patients shown to be responsive to gefitinib
# Test: Xenograft array: SCID mice bearing patient-derived NSCLC tumors treated with IRESSA
# Type: in vivo
# Conditions: SCID mice injected with patient-derived NSCLC tumor cells; injected with 200 mg/kg of IRESSA
# Experimental: Positive expression was also confirmed using a Xenograft array. To make this array, SCID mice were injected with tumor cells derived from NSCLC tumors of patients shown to be responsive to gefitinib (IRESSA®), and tumors were allowed to grow. The mice then were injected with 200 mg/kg of IRESSA®, and the mice were monitored to observe responsiveness to the drug.
compound,measurement,value
"COc1cc2ncnc(Nc3ccc(F)c(Cl)c3)c2cc1OCCCN1CCOCC1 [IRESSA, gefitinib]",tumors formed in the SCID mice after treatment,reduced or eliminated
